Results taken from US9771358B2, “Dihydropyrimidine compounds and their application in pharmaceuticals” (SUNSHINE LAKE PHARMA CO., LTD., priority 2014, dated 2017).

Tested on: HBV
Assay: In-vitro anti-HBV activity in stable HBV-producing cell line (HepG2.2.15), HBV DNA by qPCR
Assay type: cell-based
Details: Hepatitis B virus
Protocol: HBV DNA contents in cell culture fluid were detected by the qPCR-based assay and 50% effective concentration (EC50) values of the compounds against HBV were calculated. Specific procedures are as follows:
HepG2.2.15 cells were seeded into each well of 96-well plates, 40,000 cells per well. Cells were treated with cell culture medium containing compounds with different concentrations for 24 hours after cell seeding. The final concentration of each compound was 16.4 μM in each well and each compound was diluted to desired concentration using 3-fold gradient dilution protocol, 9 diluted points in duplicate. The culture mediums containing the compounds were refreshed on day 4 post cell seeding. Culture media were collected from the HepG2.2.15 plates on day 7 post cell seeding followed by HBV DNA extraction.
HBV DNA extraction: The HBV DNA extraction was performed using QIAamp 96 DNA Blood Kit (QIAGEN 51161).
PCR for quantification: PCR mix was prepared according to PCR system. PCR mix was dispensed to 96-well optical reaction plates (special for quantification). The standard diluted proportionally was added. Then the sample was added; The plates were sealed with optical adhesive film; PCR system was performed according to programs.
Percentage of HBV inhibition of DNA replication by compound was calculated using the following equation: % Inh.=[1-HBV DNA quantity of sample/HBV DNA quantity of DMSO control]×100.
Calculating EC50 value of compounds to HBV replication: the EC50 values were calculated based on “four-parameter logistic equation” and using GraphPad Prism 5 analysis software.

[1] = 168 h, HepG2.2.15 cells, HBV DNA in culture fluid, day 7, top concentration 16.4 μM

Row | SMILES | EC50 [1] [nM] | EC50 (HepG2.2.15, isomers of compound of formular (II)) [nM]
1 | COC(=O)C1=C(CN2CCOC[C@@H]2CCC(=O)O)NC(c2nccs2)=N[C@H]1c1ccc(F)cc1Br [Example 16, 3-((S)-4-(((R)-6-(2-Bromo-4-fluorophenyl)-5-(methoxycarbonyl)-2-(thiazol-2-yl)-3,6-dihydropyrimidin-4-yl)methyl)morpholin-3-yl)propanoic acid] | 9 | –
2 | CCOC(=O)C1=C(CN2CCOC[C@@H]2CCC(=O)O)NC(c2nccs2)=N[C@H]1c1ccc(F)cc1Cl [Example 17, 3-((S)-4-(((R)-6-(2-Chloro-4-fluorophenyl)-5-(ethoxycarbonyl)-2-(thiazol-2-yl)-3,6-dihydropyrimidin-4-yl)methyl)morpholin-3-yl)propanoic acid] | 12 | –
3 | COC(=O)C1=C(CN2CCOC[C@@H]2CCC(=O)O)NC(c2nccs2)=N[C@H]1c1ccc(F)cc1Cl [Example 18, 3-((S)-4-(((R)-6-(2-Chloro-4-fluorophenyl)-5-(methoxycarbonyl)-2-(thiazol-2-yl)-3,6-dihydropyrimidin-4-yl)methyl)morpholin-3-yl)propanoic acid] | 10 | –
4 | CCOC(=O)C1=C(CN2CCOC[C@@H]2CCC(=O)O)NC(c2nccs2)=N[C@H]1c1ccc(Cl)cc1Cl [Example 19, 3-((S)-4-(((R)-6-(2,4-Dichlorophenyl)-5-(ethoxycarbonyl)-2-(thiazol-2-yl)-3,6-dihydropyrimidin-4-yl)methyl)morpholin-3-yl)propanoic acid] | 6 | –
5 | COC(=O)C1=C(CN2CCOC[C@@H]2CCC(=O)O)NC(c2nccs2)=N[C@H]1c1ccc(Cl)cc1Cl [Example 20, 3-((S)-4-(((R)-6-(2,4-Dichlorophenyl)-5-(methoxycarbonyl)-2-(thiazol-2-yl)-3,6-dihydropyrimidin-4-yl)methyl)morpholin-3-yl)propanoic acid] | 5.5 | –
6 | CCOC(=O)C1=C(CN2CCO[C@@H](CCC(=O)O)C2)NC(c2nccs2)=N[C@H]1c1ccc(F)cc1Br [Example 21, 3-((S)-4-(((R)-6-(2-Bromo-4-fluorophenyl)-5-(ethoxycarbonyl)-2-(thiazol-2-yl)-3,6-dihydropyrimidin-4-yl)methyl)morpholin-2-yl)propanoic acid] | 93.6 | –
7 | COC(=O)C1=C(CN2CCO[C@@H](CCC(=O)O)C2)NC(c2nccs2)=N[C@H]1c1ccc(F)cc1Br [Example 22, 3-((S)-4-(((R)-6-(2-Bromo-4-fluorophenyl)-5-(methoxycarbonyl)-2-(thiazol-2-yl)-3,6-dihydropyrimidin-4-yl)methyl)morpholin-2-yl)propanoic acid] | 89 | –
8 | CCOC(=O)C1=C(CN2CCO[C@@H](CCC(=O)O)C2)NC(c2nccs2)=N[C@H]1c1ccc(F)cc1Cl [Example 23, 3-((S)-4-(((R)-6-(2-Chloro-4-fluorophenyl)-5-(ethoxycarbonyl)-2-(thiazol-2-yl)-3,6-dihydropyrimidin-4-yl)methyl)morpholin-2-yl)propanoic acid] | 110 | 110
9 | COC(=O)C1=C(CN2CCO[C@@H](CCC(=O)O)C2)NC(c2nccs2)=N[C@H]1c1ccc(F)cc1Cl [Example 24, 3-((S)-4-(((R)-6-(2-Chloro-4-fluorophenyl)-5-(methoxycarbonyl)-2-(thiazol-2-yl)-3,6-dihydropyrimidin-4-yl)methyl)morpholin-2-yl)propanoic acid] | 107 | –
10 | CCOC(=O)C1=C(CN2CCO[C@@H](CCC(=O)O)C2)NC(c2nccs2)=N[C@H]1c1ccc(Cl)cc1Cl [Example 25, 3-((S)-4-(((R)-6-(2,4-Dichlorophenyl)-5-(ethoxycarbonyl)-2-(thiazol-2-yl)-3,6-dihydropyrimidin-4-yl)methyl)morpholin-2-yl)propanoic acid] | 86 | –
11 | COC(=O)C1=C(CN2CCO[C@@H](CCC(=O)O)C2)NC(c2nccs2)=N[C@H]1c1ccc(Cl)cc1Cl [Example 26, 3-((S)-4-(((R)-6-(2,4-Dichlorophenyl)-5-(methoxycarbonyl)-2-(thiazol-2-yl)-3,6-dihydropyrimidin-4-yl)methyl)morpholin-2-yl)propanoic acid] | 82 | –
12 | CCOC(=O)C1=C(CN2CCO[C@H](CCC(=O)O)C2)NC(c2nccs2)=N[C@@H]1c1ccc(F)cc1Br [Example 35, 3-((R)-4-(((S)-6-(2-Bromo-4-fluorophenyl)-5-(ethoxycarbonyl)-2-(thiazol-2-yl)-3,6-dihydropyrimidin-4-yl)methyl)morpholin-2-yl)propanoic acid] | > 12200 | –
13 | CCOC(=O)C1=C(CN2CCO[C@@H](CCC(=O)O)C2)NC(c2nccs2)=N[C@@H]1c1ccc(F)cc1Br [Example 36, 3-((S)-4-(((S)-6-(2-Bromo-4-fluorophenyl)-5-(ethoxycarbonyl)-2-(thiazol-2-yl)-3,6-dihydropyrimidin-4-yl)methyl)morpholin-2-yl)propanoic acid] | > 14500 | –
14 | CCOC(=O)C1=C(CN2CCO[C@H](CCC(=O)O)C2)NC(c2nccs2)=N[C@@H]1c1ccc(F)cc1Cl [Example 37, 3-((R)-4-(((S)-6-(2-Chloro-4-fluorophenyl)-5-(ethoxycarbonyl)-2-(thiazol-2-yl)-3,6-dihydropyrimidin-4-yl)methyl)morpholin-2-yl)propanoic acid] | > 16400 | –
15 | CCOC(=O)C1=C(CN2CCO[C@@H](CCC(=O)O)C2)NC(c2nccs2)=N[C@@H]1c1ccc(F)cc1Cl [Example 38, 3-((S)-4-(((S)-6-(2-Chloro-4-fluorophenyl)-5-(ethoxycarbonyl)-2-(thiazol-2-yl)-3,6-dihydropyrimidin-4-yl)methyl)morpholin-2-yl)propanoic acid] | > 16400 | –
16 | COC(=O)C1=C(CN2CCO[C@H](CCC(=O)O)C2)NC(c2nccs2)=N[C@@H]1c1ccc(F)cc1Cl [Example 39, 3-((R)-4-(((S)-6-(2-Chloro-4-fluorophenyl)-5-(methoxycarbonyl)-2-(thiazol-2-yl)-3,6-dihydropyrimidin-4-yl)methyl)morpholin-2-yl)propanoic acid] | > 15200 | –
17 | COC(=O)C1=C(CN2CCO[C@@H](CCC(=O)O)C2)NC(c2nccs2)=N[C@@H]1c1ccc(F)cc1Cl [Example 40, 3-((S)-4-(((S)-6-(2-Chloro-4-fluorophenyl)-5-(methoxycarbonyl)-2-(thiazol-2-yl)-3,6-dihydropyrimidin-4-yl)methyl)morpholin-2-yl)propanoic acid] | > 16400 | –
18 | COC(=O)C1=C(CN2CCO[C@H](CCC(=O)O)C2)NC(c2nccs2)=N[C@@H]1c1ccc(F)cc1Br [Example 41, 3-((R)-4-(((S)-6-(2-Bromo-4-fluorophenyl)-5-(methoxycarbonyl)-2-(thiazol-2-yl)-3,6-dihydropyrimidin-4-yl)methyl)morpholin-2-yl)propanoic acid] | > 12800 | –
19 | COC(=O)C1=C(CN2CCO[C@@H](CCC(=O)O)C2)NC(c2nccs2)=N[C@@H]1c1ccc(F)cc1Br [Example 42, 3-((S)-4-(((S)-6-(2-Bromo-4-fluorophenyl)-5-(methoxycarbonyl)-2-(thiazol-2-yl)-3,6-dihydropyrimidin-4-yl)methyl)morpholin-2-yl)propanoic acid] | > 15300 | –
20 | CCOC(=O)C1=C(CN2CCO[C@H](CCC(=O)O)C2)NC(c2nccs2)=N[C@@H]1c1ccc(Cl)cc1Cl [Example 43, 3-((R)-4-(((S)-6-(2,4-Dichlorophenyl)-5-(ethoxycarbonyl)-2-(thiazol-2-yl)-3,6-dihydropyrimidin-4-yl)methyl)morpholin-2-yl)propanoic acid] | > 11700 | –
